This is an account of results in patent US20250221966A1, “RXFP1 AGONISTS” (BRISTOL-MYERS SQUIBB COMPANY, priority 2021, published 2025).

The structures appear in SMILES notation.

Usually EC50 stands for the concentration that produces a half-maximal response.

In the experiment the target is T1, human RXFP1 (Homo sapiens, UniProt Q9HBX9).
T1 construct: expressed in transfected cells
T1 sequence (Q9HBX9 1-757): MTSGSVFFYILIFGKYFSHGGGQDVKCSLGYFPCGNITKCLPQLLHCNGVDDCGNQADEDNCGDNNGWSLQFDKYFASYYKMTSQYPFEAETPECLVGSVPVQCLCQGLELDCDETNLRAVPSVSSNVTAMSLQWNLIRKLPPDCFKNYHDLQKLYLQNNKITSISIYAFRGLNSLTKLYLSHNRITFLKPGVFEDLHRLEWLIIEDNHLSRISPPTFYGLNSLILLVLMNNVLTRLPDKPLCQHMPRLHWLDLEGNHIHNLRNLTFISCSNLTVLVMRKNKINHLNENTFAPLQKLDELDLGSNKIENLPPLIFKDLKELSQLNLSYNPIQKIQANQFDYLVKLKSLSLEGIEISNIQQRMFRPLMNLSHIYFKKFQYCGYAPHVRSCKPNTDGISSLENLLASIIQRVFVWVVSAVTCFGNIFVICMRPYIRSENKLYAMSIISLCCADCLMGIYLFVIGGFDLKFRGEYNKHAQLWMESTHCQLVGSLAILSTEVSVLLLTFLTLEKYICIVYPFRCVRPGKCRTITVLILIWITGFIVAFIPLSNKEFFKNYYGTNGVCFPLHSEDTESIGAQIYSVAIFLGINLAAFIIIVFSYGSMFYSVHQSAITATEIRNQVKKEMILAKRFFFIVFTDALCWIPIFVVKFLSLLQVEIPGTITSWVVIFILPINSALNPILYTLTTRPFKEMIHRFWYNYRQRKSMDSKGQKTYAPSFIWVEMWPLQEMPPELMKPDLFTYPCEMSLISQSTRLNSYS
The experiment in a line: RXFP1 cAMP assay (hRXFP1 HEK293 cAMP assay, HTRF). It counts as cell-based. Conditions: HEK293 cells stably expressing human RXFP1, 30 min at room temperature, read-out: cAMP hRXFP1 HEK293 Assay EC50. In outline:
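HEK293 cells stably expressing human RXFP1 (1500 cells/well) in HBSS/20 mM HEPES/0.05% BSA/0.5 mM IBMX. Compounds were tested at 0.010 nM–50 μM final (2% DMSO) for 30 min at room temperature. cAMP was measured by HTRF and values derived by 4-parameter logistic fit.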
A general note: Changes in cAMP serve as a functional read-out for many G protein-coupled receptors.
`COc1ccc(-c2cc(C(COC(=O)NC3CCC3)C(F)(F)F)ccc2F)cc1C(=O)N[C@H]1[C@@H](C(=O)Nc2ccc(F)c(C(F)(F)F)c2)[C@H]2CC[C@@H]1/C2=C\C1CCCC1` (stereo partly drawn) [compound 893]: the 50% effective concentration (EC50) worked out at 2.2 nM.

Regarding `COc1ccc(-c2cc(C(COC(=O)NC3CCC3)C(F)(F)F)ccc2F)cc1C(=O)N[C@H]1[C@@H](C(=O)Nc2ccc(F)c(C(F)(F)F)c2)[C@H]2CC[C@@H]1/C2=C\C1CCCC1` (stereo partly drawn) [compound 894], the EC50 turned out to be 1.3 nM.

As for `COc1ccc(-c2cccc3c2ccn3CC(C)(C)O)cc1C(=O)N[C@@H]1C2CCC(/C2=C/C2CCCC2)[C@@H]1C(=O)Nc1ccc(F)c(C(F)(F)F)c1` (stereo partly drawn) [compound 895], the concentration giving a half-maximal response (EC50) is 0.2 nM.

For `COc1ccc(-c2ccc(C3=NOC(CO)C3)cc2F)cc1C(=O)N[C@@H]1C2CCC(/C2=C/C2CCCC2)[C@@H]1C(=O)Nc1ccc(F)c(C(F)(F)F)c1` (stereo partly drawn) [compound 897], the EC50 is 1 nM.

As to `COc1ccc(-c2cccc(S(C)(=O)=O)c2)cc1C(=O)N[C@H]1[C@@H](C(=O)Nc2ccc(F)c(C(F)(F)F)c2)[C@H]2CC[C@@H]1/C2=C\C1CC1` [compound 898], the concentration for a half-maximal effect (EC50) was 3.9 nM.

For `COc1ccc(-c2cc(S(C)(=O)=O)ccc2F)cc1C(=O)N[C@H]1[C@@H](C(=O)Nc2ccc(F)c(C(F)(F)F)c2)[C@H]2CC[C@@H]1/C2=C\C1CC1` [compound 899], the concentration giving a half-maximal response (EC50) was 3 nM.

Take `COc1ccc(-c2cccc(C3=NOC4CC(O)CC34)c2)cc1C(=O)N[C@H]1[C@@H](C(=O)Nc2ccc(F)c(C(F)(F)F)c2)[C@H]2CC[C@@H]1/C2=C\C1CC1` (stereo partly drawn) [compound 901]: the concentration giving a half-maximal response (EC50) amounted to 4.5 nM.

For the compound `COc1ccc(-c2cccc(C3=NOC4CC(O)CC34)c2)cc1C(=O)N[C@H]1[C@@H](C(=O)Nc2ccc(F)c(C(F)(F)F)c2)[C@H]2CC[C@@H]1/C2=C\C1CC1` (stereo partly drawn) [compound 902], the EC50 was 8.7 nM.

In the case of `COc1ccc(-c2cc(C3=NOC(CO)C3)ccc2F)cc1C(=O)N[C@H]1[C@@H](C(=O)Nc2ccc(F)c(C(F)(F)F)c2)[C@H]2CC[C@@H]1/C2=C\C1CC1` (stereo partly drawn) [compound 905], the EC50 came out at 7 nM.

As to `COc1ccc(-c2cc(C3=NOC(CO)C3)ccc2F)cc1C(=O)N[C@H]1[C@@H](C(=O)Nc2ccc(F)c(C(F)(F)F)c2)[C@H]2CC[C@@H]1/C2=C\C1CC1` (stereo partly drawn) [compound 906], the concentration giving a half-maximal response (EC50) amounted to 6.8 nM.

For the compound `COc1ccc(-c2cc(S(C)(=O)=O)ccc2F)cc1C(=O)N[C@H]1[C@@H](C(=O)Nc2ccc(F)c(C(F)(F)F)c2)[C@H]2CC[C@@H]1/C2=C\C1CCCC1` [compound 907], the concentration for a half-maximal effect (EC50) is 0.1 nM.

In the case of `COc1ccc(-c2cc(C3=NOC4CC(O)CC34)ccc2F)cc1C(=O)N[C@H]1[C@@H](C(=O)Nc2ccc(F)c(C(F)(F)F)c2)[C@H]2CC[C@@H]1/C2=C\C1CC1` (stereo partly drawn) [compound 908], the EC50 came to 3.5 nM.

Take `COc1ccc(-c2cc(C3=NOC4CC(O)CC34)ccc2F)cc1C(=O)N[C@H]1[C@@H](C(=O)Nc2ccc(F)c(C(F)(F)F)c2)[C@H]2CC[C@@H]1/C2=C\C1CC1` (stereo partly drawn) [compound 909]: the EC50 worked out at 4 nM.

`COc1ccc(-c2cc(C3=NOC4COCC34)ccc2F)cc1C(=O)N[C@H]1[C@@H](C(=O)Nc2ccc(F)c(C(F)(F)F)c2)[C@H]2CC[C@@H]1/C2=C\C1CC1` (stereo partly drawn) [compound 910]: the EC50 was determined as 3.4 nM.

Take `COc1ccc(-c2cc(C3=NOC4COCC34)ccc2F)cc1C(=O)N[C@H]1[C@@H](C(=O)Nc2ccc(F)c(C(F)(F)F)c2)[C@H]2CC[C@@H]1/C2=C\C1CC1` (stereo partly drawn) [compound 911]: the EC50 stood at 7.6 nM.

Consider `COc1ccc(-c2cc(C3=NOC(C(=O)O)C3)ccc2F)cc1C(=O)N[C@H]1[C@@H](C(=O)Nc2ccc(F)c(C(F)(F)F)c2)[C@H]2CC[C@@H]1/C2=C\C1CCCC1` (stereo partly drawn) [compound 913], for which the EC50 is 9 nM.

In the case of `COc1c(F)cc(C2=NOC3CC(O)(C(F)(F)F)CC23)cc1C(=O)N[C@H]1[C@@H](C(=O)Nc2ccc(F)c(C(F)(F)F)c2)[C@H]2CC[C@@H]1/C2=C\C1CC(F)(F)C1` (stereo partly drawn) [compound 914], the half-maximal effective concentration (EC50) amounted to 7.8 nM.

As for `COc1ccc(C2=NOC3CC(C)(CO)CC23)cc1C(=O)N[C@H]1[C@@H](C(=O)N[C@H](C)C2(C)CC2)[C@H]2CC[C@@H]1/C2=C\c1csc(C(F)(F)F)n1` (stereo partly drawn) [compound 915], the concentration for a half-maximal effect (EC50) amounted to 4 nM.
